According to ChEMBL document CHEMBL1201861, “Genomics of Drug Sensitity in Cancer screening data, Wellcome Trust Sanger Institute”:
pIC50: −log10 of the molar value. Structures can show the parent of a compound that is named as a salt.

Test system: Ca9-22;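 note: growth inhibition of Ca9-22 cells, read out with a cell viability assay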
Assay: cells
Type: functional, cell-based, Homo sapiens
Conditions: Homo sapiens, Ca9-22
Description: SANGER: Inhibition of human Ca9-22 cell growth in a cell viability assay.

Question: COC1=CC(c2cc3ccccc3[nH]2)=N/C1=C\c1[nH]c(C)cc1C [OBATOCLAX MESYLATE] was tested. Which pIC50 did it give?
Answer: 6.95

Test system: DU-145
Assay: cells
Type: functional, cell-based, Homo sapiens
Conditions: Homo sapiens, DU-145
Description: SANGER: Inhibition of human DU-145 cell growth in a cell viability assay.

Question: COC1=CC(c2cc3ccccc3[nH]2)=N/C1=C\c1[nH]c(C)cc1C [OBATOCLAX MESYLATE] was tested. Which pIC50 did it give?
Answer: 6.33

Test system: ECC4;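 note: growth inhibition of ECC4 cells, read out with a cell viability assay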
Assay: cells
Type: functional, cell-based, Homo sapiens
Conditions: Homo sapiens, ECC4
Description: SANGER: Inhibition of human ECC4 cell growth in a cell viability assay.

Question: COC1=CC(c2cc3ccccc3[nH]2)=N/C1=C\c1[nH]c(C)cc1C [OBATOCLAX MESYLATE] was tested. Which pIC50 did it give?
Answer: 5.29

Test system: EFM-19;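 note: growth inhibition of human EFM-19 cells, measured in a cell viability assay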
Assay: cells
Type: functional, cell-based, Homo sapiens
Conditions: Homo sapiens, EFM-19
Description: SANGER: Inhibition of human EFM-19 cell growth in a cell viability assay.

Question: COC1=CC(c2cc3ccccc3[nH]2)=N/C1=C\c1[nH]c(C)cc1C [OBATOCLAX MESYLATE] was tested. Which pIC50 did it give?
Answer: 6.91

Test system: GMS-10;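 note: growth inhibition of GMS-10 cells, read out as cell viability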
Assay: cells
Type: functional, cell-based, Homo sapiens
Conditions: Homo sapiens, GMS-10
Description: SANGER: Inhibition of human GMS-10 cell growth in a cell viability assay.

Question: How did the pIC50 turn out when COC1=CC(c2cc3ccccc3[nH]2)=N/C1=C\c1[nH]c(C)cc1C [OBATOCLAX MESYLATE] was run?
Answer: 5.59

Test system: GP5d;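 note: growth inhibition of human GP5d cells, read out with a cell viability assay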
Assay: cells
Type: functional, cell-based, Homo sapiens
Conditions: Homo sapiens, GP5d
Description: SANGER: Inhibition of human GP5d cell growth in a cell viability assay.

Question: COC1=CC(c2cc3ccccc3[nH]2)=N/C1=C\c1[nH]c(C)cc1C [OBATOCLAX MESYLATE] was tested. Which pIC50 did it give?
Answer: 6.65

Test system: HCC1599;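 note: growth inhibition of HCC1599 cells, read out in a cell viability assay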
Assay: cells
Type: functional, cell-based, Homo sapiens
Conditions: Homo sapiens, HCC1599
Description: SANGER: Inhibition of human HCC1599 cell growth in a cell viability assay.

Question: COC1=CC(c2cc3ccccc3[nH]2)=N/C1=C\c1[nH]c(C)cc1C [OBATOCLAX MESYLATE] was tested. Which pIC50 did it give?
Answer: 6.30

Test system: HCC1937;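 note: growth inhibition measured with a cell viability read-out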
Assay: cells
Type: functional, cell-based, Homo sapiens
Conditions: Homo sapiens, HCC1937
Description: SANGER: Inhibition of human HCC1937 cell growth in a cell viability assay.

Question: COC1=CC(c2cc3ccccc3[nH]2)=N/C1=C\c1[nH]c(C)cc1C [OBATOCLAX MESYLATE] was tested. Which pIC50 did it give?
Answer: 6.33

Test system: HEC-1;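 note: growth inhibition of the cell line, read out with a cell viability assay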
Assay: cells
Type: functional, cell-based, Homo sapiens
Conditions: Homo sapiens, HEC-1
Description: SANGER: Inhibition of human HEC-1 cell growth in a cell viability assay.

Question: With COC1=CC(c2cc3ccccc3[nH]2)=N/C1=C\c1[nH]c(C)cc1C [OBATOCLAX MESYLATE] as the compound, how does the pIC50 read?
Answer: 7.43

Test system: HGC-27;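 note: growth inhibition of human HGC-27 cells, read out in a cell viability assay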
Assay: cells
Type: functional, cell-based, Homo sapiens
Conditions: Homo sapiens, HGC-27
Description: SANGER: Inhibition of human HGC-27 cell growth in a cell viability assay.

Question: How did the pIC50 turn out when COC1=CC(c2cc3ccccc3[nH]2)=N/C1=C\c1[nH]c(C)cc1C [OBATOCLAX MESYLATE] was run?
Answer: > 7.20

Test system: HuP-T3;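 note: HuP-T3 cell growth inhibition, read out with a cell viability assay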
Assay: cells
Type: functional, cell-based, Homo sapiens
Conditions: Homo sapiens, HuP-T3
Description: SANGER: Inhibition of human HuP-T3 cell growth in a cell viability assay.

Question: With COC1=CC(c2cc3ccccc3[nH]2)=N/C1=C\c1[nH]c(C)cc1C [OBATOCLAX MESYLATE] as the compound, how does the pIC50 read?
Answer: 6.28

Test system: KYSE-140;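 note: cell viability assay measuring growth inhibition in human KYSE-140 cells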
Assay: cells
Type: functional, cell-based, Homo sapiens
Conditions: Homo sapiens, KYSE-140
Description: SANGER: Inhibition of human KYSE-140 cell growth in a cell viability assay.

Question: With COC1=CC(c2cc3ccccc3[nH]2)=N/C1=C\c1[nH]c(C)cc1C [OBATOCLAX MESYLATE] as the compound, how does the pIC50 read?
Answer: > 7.20

Test system: KYSE-450;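 note: cell growth inhibition measured by a viability assay in human KYSE-450 cells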
Assay: cells
Type: functional, cell-based, Homo sapiens
Conditions: Homo sapiens, KYSE-450
Description: SANGER: Inhibition of human KYSE-450 cell growth in a cell viability assay.

Question: How did the pIC50 turn out when COC1=CC(c2cc3ccccc3[nH]2)=N/C1=C\c1[nH]c(C)cc1C [OBATOCLAX MESYLATE] was run?
Answer: > 7.20

Test system: LCLC-103H cell line
Assay: cells
Type: functional, cell-based, Homo sapiens
Conditions: Homo sapiens, LCLC-103H
Description: SANGER: Inhibition of human LCLC-103H cell growth in a cell viability assay.

Question: With COC1=CC(c2cc3ccccc3[nH]2)=N/C1=C\c1[nH]c(C)cc1C [OBATOCLAX MESYLATE] as the compound, how does the pIC50 read?
Answer: 6.73

Test system: LK-2;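 note: growth inhibition of LK-2 cells, read out with a viability assay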
Assay: cells
Type: functional, cell-based, Homo sapiens
Conditions: Homo sapiens, LK-2
Description: SANGER: Inhibition of human LK-2 cell growth in a cell viability assay.

Question: With COC1=CC(c2cc3ccccc3[nH]2)=N/C1=C\c1[nH]c(C)cc1C [OBATOCLAX MESYLATE] as the compound, how does the pIC50 read?
Answer: 7.30

Test system: M14;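 note: growth inhibition of M14 cells, read out with a cell viability assay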
Assay: cells
Type: functional, cell-based, Homo sapiens
Conditions: Homo sapiens, M14
Description: SANGER: Inhibition of human M14 cell growth in a cell viability assay.

Question: With COC1=CC(c2cc3ccccc3[nH]2)=N/C1=C\c1[nH]c(C)cc1C [OBATOCLAX MESYLATE] as the compound, how does the pIC50 read?
Answer: 6.34

Test system: MDA-MB-134-VI
Assay: cells
Type: functional, cell-based, Homo sapiens
Conditions: Homo sapiens, MDA-MB-134-VI
Description: SANGER: Inhibition of human MDA-MB-134-VI cell growth in a cell viability assay.

Question: With COC1=CC(c2cc3ccccc3[nH]2)=N/C1=C\c1[nH]c(C)cc1C [OBATOCLAX MESYLATE] as the compound, how does the pIC50 read?
Answer: 5.39

Test system: MDA-MB-231
Assay: cells
Type: functional, cell-based, Homo sapiens
Conditions: Homo sapiens, MDA-MB-231
Description: SANGER: Inhibition of human MDA-MB-231 cell growth in a cell viability assay.

Question: COC1=CC(c2cc3ccccc3[nH]2)=N/C1=C\c1[nH]c(C)cc1C [OBATOCLAX MESYLATE] was tested. Which pIC50 did it give?
Answer: 6.10

Test system: MG-63;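 note: growth inhibition of human MG-63 cells, read out with a cell viability assay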
Assay: cells
Type: functional, cell-based, Homo sapiens
Conditions: Homo sapiens, MG-63
Description: SANGER: Inhibition of human MG-63 cell growth in a cell viability assay.

Question: How did the pIC50 turn out when COC1=CC(c2cc3ccccc3[nH]2)=N/C1=C\c1[nH]c(C)cc1C [OBATOCLAX MESYLATE] was run?
Answer: 6.67

Test system: MIA PaCa-2;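 note: growth inhibition of MIA PaCa-2 cells, read out with a cell viability assay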
Assay: cells
Type: functional, cell-based, Homo sapiens
Conditions: Homo sapiens, MIA PaCa-2
Description: SANGER: Inhibition of human MIA-PaCa-2 cell growth in a cell viability assay.

Question: COC1=CC(c2cc3ccccc3[nH]2)=N/C1=C\c1[nH]c(C)cc1C [OBATOCLAX MESYLATE] was tested. Which pIC50 did it give?
Answer: 6.63

Test system: MONO-MAC-6;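 note: cell viability assay measuring growth inhibition of human MONO-MAC-6 cells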
Assay: cells
Type: functional, cell-based, Homo sapiens
Conditions: Homo sapiens, MONO-MAC-6
Description: SANGER: Inhibition of human MONO-MAC-6 cell growth in a cell viability assay.

Question: How did the pIC50 turn out when COC1=CC(c2cc3ccccc3[nH]2)=N/C1=C\c1[nH]c(C)cc1C [OBATOCLAX MESYLATE] was run?
Answer: 6.36

Test system: MeWo;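 note: growth inhibition of MeWo cells, determined by a cell viability readout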
Assay: cells
Type: functional, cell-based, Homo sapiens
Conditions: Homo sapiens, MeWo
Description: SANGER: Inhibition of human Mewo cell growth in a cell viability assay.

Question: With COC1=CC(c2cc3ccccc3[nH]2)=N/C1=C\c1[nH]c(C)cc1C [OBATOCLAX MESYLATE] as the compound, how does the pIC50 read?
Answer: 5.30

Test system: NCI-H1522;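 note: growth inhibition of NCI-H1522 cells, read out with a cell viability assay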
Assay: cells
Type: functional, cell-based, Homo sapiens
Conditions: Homo sapiens, NCI-H1522
Description: SANGER: Inhibition of human NCI-H1522 cell growth in a cell viability assay.

Question: With COC1=CC(c2cc3ccccc3[nH]2)=N/C1=C\c1[nH]c(C)cc1C [OBATOCLAX MESYLATE] as the compound, how does the pIC50 read?
Answer: 5.70
